Reference: the NIST ThermoML archive (doi:10.1016/j.jct.2012.03.003)

Assay: xn = mol fraction of the nth substance listed
Conditions: Liquid, Vibrating tube method

COc1cc2c(cc1O)CC1c3c(cc(O)c(OC)c3-2)CCN1C (stereo not given) [boldine] + CCCO
Conditions	mass density [kg/m3]
323.11 K, 16000 kPa, x1 = 0.0112	811.88
323.11 K, 16000 kPa, x1 = 0.0142	816.47
323.11 K, 17000 kPa, x1 = 0.0112	812.65
323.11 K, 17000 kPa, x1 = 0.0142	817.24
323.11 K, 18000 kPa, x1 = 0.0112	813.42
323.11 K, 18000 kPa, x1 = 0.0142	818
323.11 K, 19000 kPa, x1 = 0.0112	814.16
323.11 K, 19000 kPa, x1 = 0.0142	818.74
323.11 K, 20000 kPa, x1 = 0.0112	814.92
323.11 K, 20000 kPa, x1 = 0.0142	819.49
323.12 K, 1000 kPa, x1 = 0.0077	792.79
323.12 K, 2000 kPa, x1 = 0.0077	793.61
323.12 K, 3000 kPa, x1 = 0.0077	794.44
323.12 K, 4000 kPa, x1 = 0.0077	795.28
323.12 K, 5000 kPa, x1 = 0.0077	796.12
323.12 K, 6000 kPa, x1 = 0.0077	796.97
323.12 K, 7000 kPa, x1 = 0.0077	797.82
323.12 K, 8000 kPa, x1 = 0.0077	798.67
323.12 K, 9000 kPa, x1 = 0.0077	799.51
323.12 K, 10000 kPa, x1 = 0.0077	800.35
323.12 K, 11000 kPa, x1 = 0.0077	801.2
323.12 K, 12000 kPa, x1 = 0.0077	802.03
323.12 K, 13000 kPa, x1 = 0.0077	802.85
323.12 K, 14000 kPa, x1 = 0.0077	803.66
323.12 K, 15000 kPa, x1 = 0.0077	804.47
323.12 K, 16000 kPa, x1 = 0.0077	805.27
323.12 K, 17000 kPa, x1 = 0.0077	806.04
323.12 K, 18000 kPa, x1 = 0.0077	806.81
323.12 K, 19000 kPa, x1 = 0.0077	807.57
323.12 K, 20000 kPa, x1 = 0.0077	808.3
323.14 K, 1000 kPa, x1 = 0.0046	788.94
323.14 K, 2000 kPa, x1 = 0.0046	789.78
323.14 K, 3000 kPa, x1 = 0.0046	790.61
323.14 K, 4000 kPa, x1 = 0.0046	791.45
323.14 K, 5000 kPa, x1 = 0.0046	792.3
323.14 K, 6000 kPa, x1 = 0.0046	793.15
323.14 K, 7000 kPa, x1 = 0.0046	794.01
323.14 K, 8000 kPa, x1 = 0.0046	794.86
323.14 K, 9000 kPa, x1 = 0.0046	795.72
323.14 K, 10000 kPa, x1 = 0.0046	796.56
323.14 K, 11000 kPa, x1 = 0.0046	797.4
323.14 K, 12000 kPa, x1 = 0.0046	798.24
323.14 K, 13000 kPa, x1 = 0.0046	799.07
323.14 K, 14000 kPa, x1 = 0.0046	799.88
323.14 K, 15000 kPa, x1 = 0.0046	800.71
323.14 K, 16000 kPa, x1 = 0.0046	801.5
323.14 K, 17000 kPa, x1 = 0.0046	802.28
323.14 K, 18000 kPa, x1 = 0.0046	803.06
323.14 K, 19000 kPa, x1 = 0.0046	803.81
323.14 K, 20000 kPa, x1 = 0.0046	804.56
333.04 K, 1000 kPa, x1 = 0.0018	774.01
333.04 K, 1000 kPa, x1 = 0.0077	784.16
333.04 K, 1000 kPa, x1 = 0.0112	790.89
333.04 K, 1000 kPa, x1 = 0.0142	795.51
333.04 K, 2000 kPa, x1 = 0.0018	774.92
333.04 K, 2000 kPa, x1 = 0.0077	785.05
333.04 K, 2000 kPa, x1 = 0.0112	791.78
333.04 K, 2000 kPa, x1 = 0.0142	796.38
333.04 K, 3000 kPa, x1 = 0.0018	775.82
333.04 K, 3000 kPa, x1 = 0.0077	785.95
333.04 K, 3000 kPa, x1 = 0.0112	792.66
333.04 K, 3000 kPa, x1 = 0.0142	797.27
333.04 K, 4000 kPa, x1 = 0.0018	776.73
333.04 K, 4000 kPa, x1 = 0.0077	786.85
333.04 K, 4000 kPa, x1 = 0.0112	793.55
333.04 K, 4000 kPa, x1 = 0.0142	798.15
333.04 K, 5000 kPa, x1 = 0.0018	777.64
333.04 K, 5000 kPa, x1 = 0.0077	787.74
333.04 K, 5000 kPa, x1 = 0.0112	794.46
333.04 K, 5000 kPa, x1 = 0.0142	799.05
333.04 K, 6000 kPa, x1 = 0.0018	778.55
333.04 K, 6000 kPa, x1 = 0.0077	788.65
333.04 K, 6000 kPa, x1 = 0.0112	795.35
333.04 K, 6000 kPa, x1 = 0.0142	799.92
333.04 K, 7000 kPa, x1 = 0.0018	779.47
